Results as given in patent publication US20250302862A1, “SMALL RNA DRUG FOR INHIBITING ACTIVITY OF CANCER CELLS” (Institute of Basic Medical Sciences Chinese Academy of …, priority 2022, published 2025).

Key:
Format in all cases: cell-based, human
breast cancer MCF7 cells = test: Concentration-dependent proliferation inhibition, MTS; details: gradient 0.01-100 noml/L, MTS after 48 h
Method: (§1) 1) Breast cancer MCF7 cells, breast cancer MDA-MB-231 cells, gastric cancer AGS cells, pancreatic cancer HS766T cells, pancreatic cancer ASPC-1 cells, and prostate cancer PC-3 cells with a cell density of more than 90% in 10 cm^2 plates were plated in 96-well according to the cell growth rate. Transfection was performed after 12 h, and the groups (3 wells per group) were divided as follows: • blank control group: 20 uL of opti-MEM • negative control group (NC group) and experimental group: • A. 10 uL of opti-MEM and 0.2 uL of iMax were mixed well for 5 min • B. 10 uL of opti-MEM and small RNA were mixed well (the concentration gradient of experimental group was set as: 0.01 noml/L, 0.03 noml/L, 0.1 noml/L, 0.39 noml/L, 0.78 noml/L, 1.56 noml/L, 3.125 noml/L, 6.25 noml/L, 12.5 noml/L, 25 noml/L, 50 noml/L, 100 noml/L; the final concentration of sRNA in NC group was 100 noml/L) • C. solution A and solution B were mixed well and let stand for 15 min, and then was added at a 20 uL system • Note: 100 uL of nuclease-free water was added to 2 nmol of small RNA dry powder for dissolution at a storage concentration of 20 umol/L
(§2) 2) Detection of cell viability: MTS detection was performed after 48 h.
(§3) Formulation of MTS detection solution was as follows: opti-MEM:MTS A solution:MTS B solution=100:20:1. After removing the supernatant, 100 uL of MTS detection solution was added to each well and incubated for 0.5-2 h. Absorbance values at wavelengths of 490 nm and 630 nm were measured in a microplate reader.
as §1, with “dishes” for “plates”, “96-well plates” for “96-well”

gastric cancer AGS cells = test: as above; details: gradient 0.01-100 noml/L, MTS after 48 h
Method: as §1, §2, §3
as §1, with “dishes” for “plates”, “96-well plates” for “96-well”

[1] = tested on: pancreatic cancer ASPC-1 cells; test: as above; details: gradient 0.01-100 noml/L, MTS after 48 h
Method: as §1, §2, §3
as §1, with “dishes” for “plates”, “96-well plates” for “96-well”

[2] = tested on: pancreatic cancer HS766T cells; test: as above; details: gradient 0.01-100 noml/L, MTS after 48 h
Method: as §1, §2, §3
as §1, with “dishes” for “plates”, “96-well plates” for “96-well”

[3] = tested on: prostate cancer PC-3 cells; test: as above; details: gradient 0.01-100 noml/L, MTS after 48 h
Method: as §1, §2, §3
as §1, with “dishes” for “plates”, “96-well plates” for “96-well”

[4] = tested on: pancreatic cancer BXPC-3 cells; test: Apoptosis detection (Annexin V / PI); details: 100 nmol/L, jetPRIME, 72 h
Method: (§4) 1) PANC-1 cells and BXPC-3 cells with a cell density of more than 90% in 10 cm^2 dishes were plated in 12-well plates according to the cell growth rate, and transfected after 12 h, and the groups were divided as follows: • blank control group (4 wells): 100 uL of jetPRIME Buffer per well • negative control group (NC group) and experimental group (3 wells each): 100 uL of jetPRIME Buffer was mixed well with 3 uL of jetPRIME reagent and 5 uL of small RNA for each well and let stand for 15 min, and then was added to each well at a 100 uL system (final concentration 100 nmol/L) • Note: 100 uL of nuclease-free water was added to 2 nmol of small RNA dry powder for dissolution at a storage concentration of 20 umol/L
(§5) The supernatant and cells were collected after 72 h and washed twice with pre-chilled PBS. The 4 tubes of cells in the blank control group were added respectively with: (1) 200 uL of 1× binding buffer; (2) 200 uL of 1× binding buffer and 5 uL of Annexin V stain; (3) 200 uL of 1× binding buffer and 5 uL of PI stain; (4) 200 uL of 1× binding buffer, 5 uL of Annexin V stain and 5 uL of PI stain. 200 uL of 1× binding buffer, 5 uL of Annexin V stain and 5 uL of PI stain were added to each tube of both the NC group and the experimental group. The mixture was mixed well and filtered through 300 mesh filters. The live cell population and the position of quadrant gate were selected according to the blank control group, and then the apoptosis of the NC group and the experimental group was detected.
as §4, with “mixed” for “mixed well”, “per” for “for each”

[5] = tested on: pancreatic cancer PANC-1 cells; test: Apoptosis detection (Annexin V / PI); details: 100 nmol/L, jetPRIME, 72 h
Method: as §4, §5
as §4, with “mixed” for “mixed well”, “per” for “for each”

MDM-sRNA-39: small RNA derived from Maytenus hookeri, sequence GGGAUUGUAGUUCAAUUGGUCAGAGCACC (listed as RNA, chemistry not given here)
concentration-dependent: proliferation-inhibiting function (cell activity, MTS) (breast cancer MCF7 cells) | proliferation-inhibiting function (cell activity, MTS) (gastric cancer AGS cells) | proliferation-inhibiting function (cell activity, MTS) [1] | proliferation-inhibiting function (cell activity, MTS) [2] | proliferation-inhibiting function (cell activity, MTS) [3]
promotes: apoptosis [4] | apoptosis [5]

MDM-sRNA-163: small RNA derived from Maytenus hookeri, sequence UGACUCUAGUCCGACUUUGUGAAAUGACU (listed as RNA, chemistry not given here)
concentration-dependent: proliferation-inhibiting function (cell activity, MTS) (breast cancer MCF7 cells) | proliferation-inhibiting function (cell activity, MTS) (gastric cancer AGS cells) | proliferation-inhibiting function (cell activity, MTS) [1] | proliferation-inhibiting function (cell activity, MTS) [2] | proliferation-inhibiting function (cell activity, MTS) [3]
promotes: apoptosis [4] | apoptosis [5]
